Test results published in ChEMBL document CHEMBL1151010, “A case study of combinatorial libraries: Endothelin receptor antagonist hexapeptides” (Bioorg Med Chem Lett, 1995).

Key:
[1] = molecular target: T1, Endothelin-1 receptor (Sus scrofa) (UniProt Q29010); test: (§1) Inhibition of endothelin (ET-A) binding to porcine heart membranes; parameters: concentration or dose not given beside the values; conditions: Membrane, concentration not given here
T1 sequence (whole entry): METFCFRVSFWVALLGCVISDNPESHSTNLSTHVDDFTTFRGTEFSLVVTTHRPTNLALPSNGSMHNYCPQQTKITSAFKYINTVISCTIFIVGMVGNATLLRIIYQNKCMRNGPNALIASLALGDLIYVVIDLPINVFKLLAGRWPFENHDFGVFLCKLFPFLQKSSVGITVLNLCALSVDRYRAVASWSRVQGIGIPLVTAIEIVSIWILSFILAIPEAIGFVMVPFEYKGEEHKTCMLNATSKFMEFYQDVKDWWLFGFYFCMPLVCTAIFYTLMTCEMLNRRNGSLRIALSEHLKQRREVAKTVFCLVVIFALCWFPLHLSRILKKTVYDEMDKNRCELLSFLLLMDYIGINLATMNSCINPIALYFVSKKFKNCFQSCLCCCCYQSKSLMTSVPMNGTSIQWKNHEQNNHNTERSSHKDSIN

Endothelin-1 receptor = molecular target: T2, Endothelin-1 receptor (Sus scrofa, UniProt Q29010); test: as §1; parameters: species or system Membrane
T2 sequence (Q29010 whole entry): T1 sequence (whole entry)

[2] = molecular target: T1, Endothelin-1 receptor (Sus scrofa); test: as §1; parameters: concentration or dose not given beside the values; conditions: Membrane, concentration not given here; remark: listed apart in the source
[3] = molecular target: T1, Endothelin-1 receptor (Sus scrofa); test: Antagonist activity against ET-A from porcine heart membranes; assay type: functional, tissue-based; conditions: concentration not given here

| inhibition [1] | IC50 (Endothelin-1 receptor) | inhibition [2] | inhibition [3] | SMILES |
| --- | --- | --- | --- | --- |
| 47% | 30 nM |  |  | CC[C@H](C)[C@H](NC(=O)[C@H](C)NC(=O)[C@H](CC(=O)O)NC(=O)[C@H](CC(C)C)NC(=O)[C@H](NC(C)=O)C1c2ccccc2CCc2ccccc21)C(=O)N[C@@H](Cc1c[nH]c2ccccc12)C(=O)O |
|  | 120 nM | 74% |  | CC[C@H](C)[C@H](NC(=O)CNC(=O)[C@H](CC(N)=O)NC(=O)[C@H](CC(C)C)NC(=O)[C@H](NC(C)=O)C1c2ccccc2CCc2ccccc21)C(=O)N[C@@H](Cc1c[nH]c2ccccc12)C(=O)O |
|  | 350 nM |  |  | CC[C@H](C)[C@H](NC(=O)CNC(=O)[C@@H](NC(=O)[C@H](CC(C)C)NC(=O)[C@H](NC(C)=O)C1c2ccccc2CCc2ccccc21)[C@@H](C)O)C(=O)N[C@@H](Cc1c[nH]c2ccccc12)C(=O)O |
|  |  | 65% |  | CC(=O)N[C@@H](C(=O)N[C@@H](CC(C)C)C(=O)N[C@@H](CO)C(=O)NCC(=O)N[C@H](C(=O)N[C@@H](Cc1c[nH]c2ccccc12)C(=O)O)C(C)C)C1c2ccccc2CCc2ccccc21 |
|  |  |  | 49% | CC[C@H](C)[C@H](NC(=O)[C@@H](NC(=O)[C@H](CC(=O)O)NC(=O)[C@H](CCC(N)=O)NC(=O)[C@H](NC(C)=O)C1c2ccccc2CCc2ccccc21)C1CCCCC1)C(=O)N[C@@H](Cc1c[nH]c2ccccc12)C(=O)O |
|  |  | 61% |  | CC[C@H](C)[C@H](NC(=O)CNC(=O)[C@H](CCSC)NC(=O)[C@H](CC(C)C)NC(=O)[C@H](NC(C)=O)C1c2ccccc2CCc2ccccc21)C(=O)N[C@@H](Cc1c[nH]c2ccccc12)C(=O)O |
|  | 150 nM | 41% |  | CC[C@H](C)[C@H](NC(=O)CNC(=O)CNC(=O)[C@H](CC(C)C)NC(=O)[C@H](NC(C)=O)C1c2ccccc2CCc2ccccc21)C(=O)N[C@@H](Cc1c[nH]c2ccccc12)C(=O)O |
|  | 380 nM |  |  | CC[C@H](C)[C@H](NC(=O)CNC(=O)[C@H](CO)NC(=O)[C@H](CC(C)C)NC(=O)[C@H](NC(C)=O)C1c2ccccc2CCc2ccccc21)C(=O)N[C@@H](Cc1c[nH]c2ccccc12)C(=O)O |
|  | 180 nM | 66% |  | CC[C@H](C)[C@H](NC(=O)CNC(=O)[C@H](CCC(N)=O)NC(=O)[C@H](CC(C)C)NC(=O)[C@H](NC(C)=O)C1c2ccccc2CCc2ccccc21)C(=O)N[C@@H](Cc1c[nH]c2ccccc12)C(=O)O |
|  |  | 16% |  | CC[C@H](C)[C@H](NC(=O)CNC(=O)[C@H](CCCCN)NC(=O)[C@H](CC(C)C)NC(=O)[C@H](NC(C)=O)C1c2ccccc2CCc2ccccc21)C(=O)N[C@@H](Cc1c[nH]c2ccccc12)C(=O)O |
|  |  |  | 47% | CC[C@H](C)[C@H](NC(=O)[C@@H](NC(=O)[C@H](CC(=O)O)NC(=O)[C@H](CC(C)C)NC(=O)[C@H](NC(C)=O)C1c2ccccc2CCc2ccccc21)C1CCCCC1)C(=O)N[C@@H](Cc1c[nH]c2ccccc12)C(=O)O |
|  |  | 22% |  | CC[C@@H](C)[C@H](NC(=O)[C@H](CC(C)C)NC(=O)[C@H](NC(C)=O)C1c2ccccc2CCc2ccccc21)C(=O)NCC(=O)N[C@H](C(=O)N[C@@H](Cc1c[nH]c2ccccc12)C(=O)O)[C@@H](C)CC |
|  |  | 56% |  | CC[C@H](C)[C@H](NC(=O)CNC(=O)[C@H](Cc1c[nH]cn1)NC(=O)[C@H](CC(C)C)NC(=O)[C@H](NC(C)=O)C1c2ccccc2CCc2ccccc21)C(=O)N[C@@H](Cc1c[nH]c2ccccc12)C(=O)O |
|  |  | 7% |  | CC[C@H](C)[C@H](NC(=O)CNC(=O)[C@@H]1CCCN1C(=O)[C@H](CC(C)C)NC(=O)[C@H](NC(C)=O)C1c2ccccc2CCc2ccccc21)C(=O)N[C@@H](Cc1c[nH]c2ccccc12)C(=O)O |
|  |  | 34% |  | CC[C@H](C)[C@H](NC(=O)CNC(=O)[C@H](CC(C)C)NC(=O)[C@H](CC(C)C)NC(=O)[C@H](NC(C)=O)C1c2ccccc2CCc2ccccc21)C(=O)N[C@@H](Cc1c[nH]c2ccccc12)C(=O)O |
|  |  | 42% |  | CC[C@H](C)[C@H](NC(=O)CNC(=O)[C@H](Cc1ccccc1)NC(=O)[C@H](CC(C)C)NC(=O)[C@H](NC(C)=O)C1c2ccccc2CCc2ccccc21)C(=O)N[C@@H](Cc1c[nH]c2ccccc12)C(=O)O |
|  |  | 62% |  | CC[C@H](C)[C@H](NC(=O)CNC(=O)[C@H](C)NC(=O)[C@H](CC(C)C)NC(=O)[C@H](NC(C)=O)C1c2ccccc2CCc2ccccc21)C(=O)N[C@@H](Cc1c[nH]c2ccccc12)C(=O)O |
|  | 48 nM | 88% |  | CC[C@H](C)[C@H](NC(=O)CNC(=O)[C@H](CCC(=O)O)NC(=O)[C@H](CC(C)C)NC(=O)[C@H](NC(C)=O)C1c2ccccc2CCc2ccccc21)C(=O)N[C@@H](Cc1c[nH]c2ccccc12)C(=O)O |
| 70% | 5 nM |  |  | CC[C@H](C)[C@H](NC(=O)[C@@H](NC(=O)[C@H](CC(=O)O)NC(=O)[C@H](CC(C)C)NC(=O)[C@H](NC(C)=O)C1c2ccccc2CCc2ccccc21)C(C)C)C(=O)N[C@@H](Cc1c[nH]c2ccccc12)C(=O)O |
| 26% | 40 nM |  |  | CC[C@H](C)[C@H](NC(=O)[C@H](CCSC)NC(=O)[C@H](CC(=O)O)NC(=O)[C@H](CC(C)C)NC(=O)[C@H](NC(C)=O)C1c2ccccc2CCc2ccccc21)C(=O)N[C@@H](Cc1c[nH]c2ccccc12)C(=O)O |
| 41% | 40 nM |  |  | CC[C@H](C)[C@H](NC(=O)[C@H](CC(N)=O)NC(=O)[C@H](CC(=O)O)NC(=O)[C@H](CC(C)C)NC(=O)[C@H](NC(C)=O)C1c2ccccc2CCc2ccccc21)C(=O)N[C@@H](Cc1c[nH]c2ccccc12)C(=O)O |
| 0% |  |  |  | CC[C@H](C)[C@H](NC(=O)[C@H](CCCN=C(N)N)NC(=O)[C@H](CC(=O)O)NC(=O)[C@H](CC(C)C)NC(=O)[C@H](NC(C)=O)C1c2ccccc2CCc2ccccc21)C(=O)N[C@@H](Cc1c[nH]c2ccccc12)C(=O)O |
| 41% | 18 nM | 93% |  | CC[C@H](C)[C@H](NC(=O)CNC(=O)[C@H](CC(=O)O)NC(=O)[C@H](CC(C)C)NC(=O)[C@H](NC(C)=O)C1c2ccccc2CCc2ccccc21)C(=O)N[C@@H](Cc1c[nH]c2ccccc12)C(=O)O |
|  |  | 27% |  | CC[C@H](C)[C@H](NC(=O)CNC(=O)[C@H](CCCN=C(N)N)NC(=O)[C@H](CC(C)C)NC(=O)[C@H](NC(C)=O)C1c2ccccc2CCc2ccccc21)C(=O)N[C@@H](Cc1c[nH]c2ccccc12)C(=O)O |
